Experimental data reported in patent publication US11590242B2, “Antibody-mediated autocatalytic, targeted delivery of nanocarriers to tumors” (Yale University, priority 2016, dated 2023).

Key:
[1] = tested on: 4T1 murine breast cancer cells; experiment: Cytotoxicity evaluation, MTT assay; assay type: cell-based, mouse; settings: three days treatment, listed as Free DOX
Protocol: All chemicals were purchased from Sigma-Aldrich unless otherwise noted. The mouse mammary tumor cell line 4T1 was obtained from American Type Culture Collection (ATCC) and cultured in DMEM medium (Invitrogen) supplemented with 10% fetal bovine serum (Invitrogen), 100 units/ml penicillin and 100 ug/ml streptomycin (Invitrogen), in a 37° C. incubator containing 5% CO2.
4T1 cells were plated in a 96-well cell culture plate at a concentration of 2×10^3 per well and incubated with concentrations of nanoparticles ranging from 1.25 to 500 ug/mL. The same amounts of free DOX were added to parallel wells as controls. Three days after treatment, the effect of treatments on cell proliferation was determined using the standard MTT assay.

[2] = tested on: 4T1 tumors; experiment: Antitumor evaluation in mouse tumor xenografts; assay type: in vivo, mice; settings: end of study, vs PBS control, i.v. three times a week
Protocol: Mice bearing 4T1 tumors were established as described above. […] Treatment was performed 3 times per week. Nanoparticles were administered at 1 mg, equal to 80 ug DOX per mouse. Tumor sizes were measured three times a week. Mice were euthanized when tumor volume reached 1000 mm^3, at which point the tumors were excised and fixed in formalin for immunohistochemistry. Serial sections were obtained and stained with hematoxylin and eosin (H&E) and Terminal Deoxynucleotidyl Transferase (TUNEL) for analysis of therapeutic effect. The growth curve was plotted using the mean of the tumor volumes for each treatment group, at each timepoint.

[3] = Blood concentrations of DOX-NPs with and without 3E10^EN as a function of time; assay type: in vivo, BALB/c mice; settings: 1 mg DOX-NPs i.v., coumarin 6 co-loaded, 5 min-48 h
Protocol: Blood concentrations of DOX-NPs with and without conjugation of 3E10^EN recorded as a function of time. To enable detection of NPs, NPs were co-loaded with 1% coumarin 6. Six BALB/c mice were randomly assigned to two groups, which received intravenous administration of 1 mg DOX-NPs with and without conjugation of 3E10^EN, respectively. At 5 min, 15 min, 30 min, 1 h, 2 h, 4 h, 6 h, 24 h, 36 h and 48 h post injection, 20 uL blood sample from each mouse was collected into a 1.5 mL Eppendorf tube and lyophilized. Then, 100 uL DMSO and 1 mL acetonitrile were added to each tube. After sonication in a water bath sonicator for 15 min, samples were subjected to centrifugation at 4000 rpm for 20 min to remove cellular fragments and blood albumin. Then, 0.8 ml supernatant from each sample was collected and added to an eppendorf tube. The acetonitrile was evaporated and the dye in the DMSO was quantified at Ex/Em 444/505 nm using a plate reader (BioTek ELx800).

[4] = tested on: Cal12T lung cancer cells; experiment: Delivery of nanoparticles into living cells (fluorescence microscopy, anti-myc immunostaining); assay type: cell-based; settings: fixed cells

Compound | Effect on viability of 4T1 cells [1] | Reduction of tumor volume [2] [%] | Circulation life of NPs [3] | Subcellular localization of di-scFv [4]
COc1cccc2c1C(=O)c1c(O)c3c(c(O)c1C2=O)C[C@@](O)(C(=O)CO)C[C@@H]3O[C@H]1C[C@H](N)[C@H](O)[C@H](C)O1 [DOX, doxorubicin] | comparable inhibition of cells | 26 |  | 
3E10^EN: enhanced di-single chain variable fragment of anti-DNA antibody 3E10 with D31N mutation, SEQ ID NO:12 |  |  | did not alter the circulation life of NPs | penetrated into cell nuclei
